SMILES strings stand for the structures.

The subject of assay [1] is synthesis of LTB4 in human whole blood. Nature of the assay: Human whole blood LTB4 production inhibition assay. Conditions: calcimycin stimulated, read-out: hWB LTB4 IC50. Type of assay: cell-based. In a few lines:
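Readout: plasma LTB4 by antibody-based HTRF. Compound added to heparinized human whole blood, 15 min 37° C; calcimycin 20 μM final (PBS pH 7.4), 30 min 37° C; spun 1500×g 5 min, plasma taken.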

The target in assay [2] is recombinant human FLAP protein (Homo sapiens (Human), UniProt P20292). Kind of assay: FLAP binding assay (Scintillation Proximity Assay, displacement of [125I]L-691,831). Particulars: read-out: FLAP SPA IC50. In a few lines: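 Scintillation proximity displacement of an iodinated (125I) FLAP inhibitor by test compounds, using 100,000×g membrane fraction from lysed cells. Final beads 200 μg/well and protein 5 μg/well; plates shaken 2 h before reading.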
Sequence of recombinant human FLAP protein (P20292 whole entry): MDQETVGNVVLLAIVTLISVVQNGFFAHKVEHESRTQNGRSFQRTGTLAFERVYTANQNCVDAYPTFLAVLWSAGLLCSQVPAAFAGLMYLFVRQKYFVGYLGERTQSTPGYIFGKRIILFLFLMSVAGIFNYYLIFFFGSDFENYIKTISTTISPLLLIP
(Scintillation proximity formats need no separation of bound from free tracer.)

Consider `Nc1ncc(-c2ccc(C3(c4noc(-c5cnn(CC(=O)NCC6CCCO6)c5)n4)CCC3)cn2)cn1` (centres unmarked) [Example 156, 2-[4-(3-{1-[6-(2-amino-pyrimidin-5-yl)-pyridin-3-yl]-cyclobutyl}-[1,2,4]oxadiazol-5-yl)-pyrazol-1-yl]-N-(tetrahydro-furan-2-ylmethyl)-acetamide], for which the IC50 (usually the concentration needed to halve the response being measured) in assay [1] turned out to be 620 nM; in assay [2], 97 nM.
For `Nc1ncc(-c2ccc(C3(c4noc(-c5ccc(NCCO)nc5)n4)CCC3)cn2)cn1` [Example 115, 2-{[5-(3-{1-[6-(2-aminopyrimidin-5-yl)pyridin-3-yl]cyclobutyl}-1,2,4-oxadiazol-5-yl)pyridin-2-yl]amino}ethanol], in that order: 49 nM and 1.9 nM.
Consider `CC(C)(Cn1cc(-c2nc(C3(c4ccc(-c5cnc(N)nc5)nc4)CCC3)no2)cn1)C(N)=O` [Example 147, 3-[4-(3-{1-[6-(2-amino-pyrimidin-5-yl)-pyridin-3-yl]-cyclobutyl}-[1,2,4]oxadiazol-5-yl)-pyrazol-1-yl]-2,2-dimethyl-propionamide], for which the results for the IC50 in assay [1] and in assay [2] were 340 nM and 65 nM, respectively.
As for `COC(=O)c1ccc(-c2nc(C3(c4ccc(-c5cnc(N)nc5)nc4)CCC3)no2)cn1` [Example 81, methyl 5-(3-{1-[6-(2-aminopyrimidin-5-yl)pyridin-3-yl]cyclobutyl}-1,2,4-oxadiazol-5-yl)pyridine-2-carboxylate], the IC50 in assay [1] was determined as 790 nM; in assay [2], 25 nM.
`Cc1ccc(-c2nc(C3(c4ccc(-c5cnc(N)nc5)nc4)CCC3)no2)cc1` [Example 6, 5-(5-{1-[5-(4-methylphenyl)-1,2,4-oxadiazol-3-yl]cyclobutyl}pyridin-2-yl)pyrimidin-2-amine]: the results for the IC50 in assay [1] and in assay [2] were 830 nM and 5.8 nM, respectively.
In the case of `CS(=O)(=O)c1ccc(-c2nc(C3(c4ccc(-c5cnc(N)nc5)nc4)CCC3)no2)cn1` [Example 119, 5-[5-(1-{5-[6-(methylsulfonyl)pyridin-3-yl]-1,2,4-oxadiazol-3-yl}-cyclobutyl)pyridin-2-yl]pyrimidin-2-amine], the IC50 in assay [1] turned out to be 230 nM; in assay [2], 62 nM.
Take `Cc1ccc(-c2nc(C3(c4ccc(-c5cnc(N)nc5)nc4)CCC3)no2)cn1` [Example 74, 5-(5-{1-[5-(6-methylpyridin-3-yl)-1,2,4-oxadiazol-3-yl]cyclobutyl}pyridin-2-yl)pyrimidin-2-amine]: the figures for the IC50 in assay [1] and in assay [2] were 210 nM and 4.5 nM, respectively.
Taken in the same sequence, the figures for `Nc1ncc(-c2ccc(C3(c4noc(-c5cnn6cccnc56)n4)CCC3)cn2)cn1` [Example 25, 5-(5-{1-[5-(pyrazolo[1,5-a]pyrimidin-3-yl)-1,2,4-oxadiazol-3-yl]cyclobutyl}pyridin-2-yl)pyrimidin-2-amine] were 46 nM and 4 nM.
As to `CNc1ccc(-c2nc(C3(c4ccc(-c5cnc(N)nc5)nc4)CCC3)no2)cn1` [Example 113, 5-[5-(1-{5-[6-(methylamino)pyridin-3-yl]-1,2,4-oxadiazol-3-yl}cyclobutyl)pyridin-2-yl]pyrimidin-2-amine], the figures for the IC50 in assay [1] and in assay [2] were 100 nM and 2.4 nM, respectively.
As to `Cc1nc(N)ncc1-c1ccc(C2(c3noc(-c4cnn(CC(C)(C)O)c4)n3)CCC2)cn1` [Example 175, 1-[4-(3-{1-[6-(2-Amino-4-methyl-pyrimidin-5-yl)-pyridin-3-yl]-cyclobutyl}-[1,2,4]oxadiazol-5-yl)-pyrazol-1-yl]-2-methyl-propan-2-ol], the 50% inhibitory concentration (IC50) came out at 620 nM in assay [1] and 830 nM in assay [2].
In the case of `Cn1cc(-c2nc(C3(c4ccc(-c5cnc(N)nc5)cn4)CCC3)no2)cn1` [Example 134, 5-(6-{1-[5-(1-methyl-1H-pyrazol-4-yl)-1,2,4-oxadiazol-3-yl]cyclobutyl}pyridin-3-yl)pyrimidin-2-amine], the IC50 stood at 790 nM in assay [1] and 81 nM in assay [2].
Taken in the same sequence, the figures for `CS(=O)(=O)c1ccc(-c2nc(C3(c4ccc(-c5cnc(N)nc5)nc4)CCC3)no2)cc1` [Example 7, 5-[5-(1-{5-[4-(methylsulfonyl)phenyl]-1,2,4-oxadiazol-3-yl}cyclobutyl)pyridin-2-yl]pyrimidin-2-amine] were 690 nM and 11 nM.
With `CCOC(=O)CNc1ccc(-c2nc(C3(c4ccc(-c5cnc(N)nc5)nc4)CCC3)no2)cn1` [Example 13, ethyl N-[5-(3-{1-[6-(2-aminopyrimidin-5-yl)pyridin-3-yl]cyclobutyl}-1,2,4-oxadiazol-5-yl)pyridin-2-yl]glycinate], the results for the IC50 in assay [1] and in assay [2] were 170 nM and 3.9 nM, respectively.
Taken in the same sequence, the figures for `CC(C)(O)Cn1cc(-c2nc(C3(c4ccc(-c5cnc(N)cn5)nc4)CCC3)no2)cn1` [Example 146, 1-[4-(3-{1-[6-(5-amino-pyrazin-2-yl)-pyridin-3-yl]-cyclobutyl}-[1,2,4]oxadiazol-5-yl)-pyrazol-1-yl]-2-methyl-propan-2-ol] were 43 nM and 15 nM.
Turning to `CN(C)C(=O)[C@@H]1CCCN1c1ccc(-c2nc(C3(c4ccc(-c5cnc(N)nc5)nc4)CCC3)no2)cn1` [Example 34, 1-[5-(3-{1-[6-(2-aminopyrimidin-5-yl)pyridin-3-yl]cyclobutyl}-1,2,4-oxadiazol-5-yl)pyridin-2-yl]-N,N-dimethyl-L-prolinamide], the IC50 stood at 1800 nM in assay [1] and 40 nM in assay [2].
As to `CN(CCO)c1ccc(-c2nc(C3(c4ccc(-c5cnc(N)nc5)nc4)CCC3)no2)cn1` [Example 116, 2-{[5-(3-{1-[6-(2-aminopyrimidin-5-yl)pyridin-3-yl]cyclobutyl}-1,2,4-oxadiazol-5-yl)pyridin-2-yl](methyl)amino}ethanol], the IC50 in assay [1] is 140 nM; in assay [2], 4.3 nM.
For the compound `Nc1ncc(-c2ccc(C3(c4noc(-c5ccc(N6CCN[C@@H](C(=O)O)C6)nc5)n4)CCC3)cn2)cn1` [Example 42, (2R)-4-[5-(3-{1-[6-(2-aminopyrimidin-5-yl)pyridin-3-yl]cyclobutyl}-1,2,4-oxadiazol-5-yl)pyridin-2-yl]piperazine-2-carboxylic acid], the figures for the IC50 in assay [1] and in assay [2] were above 5000 nM and 7.7 nM, respectively.
On to `CC(C)(C#N)n1cc(-c2nc(C3(c4ccc(-c5cnc(N)nc5)nc4)CCC3)no2)cn1` [Example 151, 2-[4-(3-{1-[6-(2-amino-pyrimidin-5-yl)-pyridin-3-yl]-cyclobutyl}-[1,2,4]oxadiazol-5-yl)-pyrazol-1-yl]-2-methyl-propionitrile], for which the IC50 in assay [1] worked out at 94 nM; in assay [2] it was 18 nM.
With `Nc1ncc(-c2ccc(C3(c4noc(-c5cnccn5)n4)CCC3)cn2)cn1` [Example 129, 5-(5-{1-[5-(pyrazin-2-yl)-1,2,4-oxadiazol-3-yl]cyclobutyl}pyridin-2-yl)pyrimidin-2-amine], the IC50 in assay [1] amounted to 630 nM; in assay [2], 47 nM.
Turning to `Nc1ncc(-c2ccc(C3(c4noc(-c5ccc(S(N)(=O)=O)cc5)n4)CCC3)cn2)cn1` [Example 17, 4-(3-{1-[6-(2-aminopyrimidin-5-yl)pyridin-3-yl]cyclobutyl}-1,2,4-oxadiazol-5-yl)benzenesulfonamide], the IC50 in assay [1] is above 5000 nM; in assay [2], 8.7 nM.
Turning to `COCCN(C)c1ccc(-c2nc(C3(c4ccc(-c5cnc(N)nc5)nc4)CCC3)no2)cn1` [Example 117, 5-{5-[1-(5-{6-[(2-methoxyethyl)(methyl)amino]pyridin-3-yl}-1,2,4-oxadiazol-3-yl)cyclobutyl]pyridin-2-yl}pyrimidin-2-amine], the IC50 in assay [1] was 120 nM; in assay [2], 3 nM.
On to `Cn1cc(-c2nc(C3(c4ccc(-c5cnc(N)cn5)nc4)CCC3)no2)cn1` [Example 174, 5-(5-{1-[5-(1-Methyl-1H-pyrazol-4-yl)-[1,2,4]oxadiazol-3-yl]-cyclobutyl}-pyridin-2-yl)-pyrazin-2-ylamine], for which the IC50 is 74 nM in assay [1] and 39 nM in assay [2].
For `CNC(=O)Cn1cc(-c2nc(C3(c4ccc(-c5cnc(N)nc5)nc4)CCC3)no2)cn1` [Example 58, 2-[4-(3-{1-[6-(2-aminopyrimidin-5-yl)pyridin-3-yl]cyclobutyl}-1,2,4-oxadiazol-5-yl)-1H-pyrazol-1-yl]-N-methylacetamide], the IC50 in assay [1] was 250 nM; in assay [2] it was 22 nM.
For the compound `CN(C)C(=O)Cn1cc(-c2nc(C3(c4ccc(-c5cnc(N)cn5)nc4)CCC3)no2)cn1` [Example 164, 2-[4-(3-{1-[6-(5-amino-pyrazin-2-yl)-pyridin-3-yl]-cyclobutyl}-[1,2,4]oxadiazol-5-yl)-pyrazol-1-yl]-N,N-dimethyl-acetamide], the IC50 in assay [1] was 170 nM; in assay [2] it was 43 nM.
With `Nc1ncc(-c2ccc(C3(c4noc(-c5cccnc5)n4)CCC3)cn2)cn1` [Example 73, 5-{5-[1-(5-Pyridin-3-yl-1,2,4-oxadiazol-3-yl)-cyclobutyl]-pyridin-2-yl}-pyrimidin-2-ylamine], the results for the IC50 in assay [1] and in assay [2] were 460 nM and 25 nM, respectively.
As to `Nc1ncc(-c2ccc(C3(c4noc(-c5cnn(C6COC6)c5)n4)CCC3)cn2)cn1` [Example 55, 5-[5-(1-{5-[1-(oxetan-3-yl)-1H-pyrazol-4-yl]-1,2,4-oxadiazol-3-yl}-cyclobutyl)pyridin-2-yl]pyrimidin-2-amine], the IC50 in assay [1] came to 52 nM; in assay [2], 13 nM.
As for `Nc1ncc(-c2ccc(C3(c4noc(-c5ccc(NCC(=O)O)nc5)n4)CCC3)cn2)cn1` [Example 16, N-[5-(3-{1-[6-(2-aminopyrimidin-5-yl)pyridin-3-yl]cyclobutyl}-1,2,4-oxadiazol-5-yl)pyridin-2-yl]glycine], the values for the IC50 in assay [1] and in assay [2] were 2200 nM and 11 nM, respectively.
Taken in the same sequence, the figures for `Cc1cnc(-c2nc(C3(c4ccc(-c5cnc(N)nc5)nc4)CCC3)no2)cn1` [Example 130, 5-(5-{1-[5-(5-methylpyrazin-2-yl)-1,2,4-oxadiazol-3-yl]cyclobutyl}pyridin-2-yl)pyrimidin-2-amine] were 350 nM and 26 nM.
